Square brackets hold non-standard residues; d marks the D form. Peptide text beside a SMILES is read from it. Nle = CCCC[C@H](N)C(=O)O
System: HSF1
Assay: EGS cross-linking and Western blot of HSF1 oligomeric forms in HepG2 cells
Format: cell-based, human
Settings: ALLN 40 μg/ml, 2 hours at 37° C., EGS cross-linking
Experimental: FIGS. 6A-6B: ALLN affects the trimerization of HSF. HepG2 cells were treated with serum-free MEM containing 1.5% BSA for 2 hours at 37° C. without any additions (lane1), at 37 ° C. but containing 40μg/ml of ALLN in the medium (lane2), at 37° C. in a medium containing both ALLN and 50 μg/ml of cycloheximide (lane3) , at 42° C. alone (lane4), or at 42° C. plus cycloheximide in the medium (lane5). Cell lysates were prepared as described under Experimental Details. The lysates were either directly run on the SDS-PAGE (A) to show the steady-state protein levels of HSF1 or subjected to cross-linking with ethylene glycol bis sucrinimidylsuccinate (EGS) before running the gel (B) to show the oligomeric forms of HSF1. The proteins were then transfered to a nitrocellulose membrane and immunoblotted with anti-human HSF1 antibody. Arrows on the right side indicates the monomeric, dimeric or trimeric forms of HSF1, respectively. This experiment was repeated three times with identical results.
For measurement of the steady-state HSF1 protein levels, whole cell extracts were prepared by lysing the cells directly with 2×SDS-sample buffer (Maniatis, et al., 1982). For chemical cross-linking experiments, whole-cell extracts were prepared as described (Mosser, et al., 1988). Briefly, the cold PBS-washed cell pellets were quickly and repeatedly frozen in liquid nitrogen. […]

For `CCCC[C@@H](C=O)NC(=O)[C@H](CC(C)C)NC(=O)[C@H](CC(C)C)NC(C)=O` [ALLN, N-acetyl-leucyl-leucyl-norleucinal] (Ac-Leu-Leu-[Nle]-aldehyde), the “Oligomeric form of HSF1 (270-kDa cross-linked product)” value was “trimer”.

Reference: patent publication US5942494A, “Stimulation of gene expression and synthesis of heat shock protein 72/73 (HSP 70)” (The Trustees of Columbia University in the City of New York, priority 1996, dated 1999)
